In ChEMBL document CHEMBL5390285, “Isolation and In Vitro and In Vivo Activity of Secondary Metabolites from Clerodendrum polycephalum Baker against Plasmodium Malaria Parasites” (J Nat Prod, 2023):

Tests used:
Plasmodium falciparum = test: Antiplasmodial activity against synchronized ring stage Plasmodium falciparum 3D7 infected in human erythrocytes assessed as inhibition of parasite proliferation preincubated for 48 hrs followed by [3H]-hypoxanthine incorporation and measured after 24 hrs by microbeta liquid scintillation counter analysis; format: functional, organism-based
[1] = Cytotoxicity against human NFF cells assessed as growth inhibition incubated for 72 hrs by SRB assay; format: toxicity, cell-based
[2] = Selectivity index, ratio of IC50 for cytotoxicity against human NFF cells to the IC50 for antiplasmodial activity against Plasmodium falciparum 3D7 infected in human erythrocytes; format: toxicity, cell-based; conditions: read-out: Ratio IC50
Plasmodium berghei [3] = test: (§1) In vivo antimalarial activity against Plasmodium berghei NK65 infected in Swiss albino mouse assessed as reduction in parasitemia in erythrocytes at 10 mg/kg, po administered once daily for 4 days and measured on day 5 post-infection by Giemsa staining based microscopic analysis relative to control; format: functional; parameters: scale not given: the % may be the effect or the level left; conditions: time 4 day
Plasmodium berghei [4] = test: In vivo antimalarial activity against Plasmodium berghei NK65 infected in Swiss albino mouse assessed as reduction in parasitemia in erythrocytes at 20 mg/kg, po administered once daily for 4 days and measured on day 5 post-infection by Giemsa staining based microscopic analysis relative to control; format: functional; parameters: scale not given: the % may be the effect or the level left; conditions: time 4 day
Plasmodium berghei [5] = test: as §1, with “chemosuppression of parasite” for “reduction in parasitemia”; format: functional; conditions: time 4 day
Plasmodium berghei [6] = test: In vivo antimalarial activity against Plasmodium berghei NK65 infected in Swiss albino mouse assessed as chemosuppression of parasite in erythrocytes at 20 mg/kg, po once daily for 4 days and measured on day 5 post-infection by Giemsa staining based microscopic analysis relative to control; format: functional; conditions: time 4 day

With `CC1(C)CCC[C@@]2(C)C1=C(O)C(=O)c1c2c(O)c2oc(CO)cc2c1O` as the molecule, how does the IC50 (Plasmodium falciparum) read?
The IC50 was 30 µM.

Which IC50 (Plasmodium falciparum) does the source give for `CC(=O)OC[C@@]12[C@@H](OC(C)=O)C[C@@H](C)[C@](C)(CCC3CCOC3=O)[C@H]1CCC[C@@]2(O)CCl` (some centres not stated) here?
The IC50 was > 50 µM.

Which IC50 (Plasmodium falciparum) does the source give for `CC(=O)OC[C@@]12[C@@H](OC(C)=O)C[C@@H](C)[C@](C)(CCC3CCOC3=O)[C@H]1CCC[C@@H]2C=O` (some centres not stated) here?
Its IC50 is 27.8 µM.

For `C=CC1=C(C)C2=NC/1=C\C1=NC(=C\C3=C(C)C4=C(O)[C@H](C(=O)OC)/C(=C5/N/C(=C\2)[C@@H](C)[C@@H]5CCC(=O)OC)C4=N3)/C(CC)=C1C`, which IC50 (Plasmodium falciparum) is on record?
The IC50 was 4.49 µM.

And the IC50 at 72 h [1]?
The IC50 at 72 h was > 50 µM.

And the selectivity ratio [2]?
Its selectivity ratio is > 11.

And the Activity (Plasmodium berghei [3])?
Its Activity is 2.52%.

And the Activity (Plasmodium berghei [4])?
Its Activity is 1.5%.

What about the Activity (Plasmodium berghei [5]) of the same molecule?
The Activity was 79%.

And the Activity (Plasmodium berghei [6])?
The Activity was 87%.

For `CC1(C)CCC[C@]2(C)c3c(c(O)c4cc(CO)oc4c3O)C(=O)C[C@@H]12`, which IC50 (Plasmodium falciparum) is on record?
The IC50 was > 40 µM.

For `CC(=O)OC[C@@]12[C@@H](OC(C)=O)C[C@@H](C)[C@](C)(CCC3CCOC3=O)[C@H]1CCC[C@@]21CO1` (some centres not stated), which IC50 (Plasmodium falciparum) is on record?
Its IC50 is > 50 µM.

With `COc1ccc(-c2cc(=O)c3c(O)cc(O)cc3o2)cc1` [ACACETIN] as the molecule, how does the IC50 (Plasmodium falciparum) read?
Its IC50 is < 40 µM.

Which IC50 at 72 h [1] does the source give for `CCN(CC)CCCC(C)Nc1ccnc2cc(Cl)ccc12` (configuration not stated) [CHLOROQUINE] here?
The IC50 at 72 h was 31.7 µM.

And the Activity (Plasmodium berghei [3])?
Its Activity is 1.78%.

And the Activity (Plasmodium berghei [5])?
Its Activity is 85%.

With `CC1(C)C[C@H](O)C[C@@]2(C)OC(=O)C=C12` [LOLIOLIDE] as the molecule, how does the IC50 (Plasmodium falciparum) read?
The IC50 was > 50 µM.
